This note sets out measurements from patent US5214204A, “Arylamidoalkyl-N-hydroxyurea compounds having lipoxygenase inhibitory activity” (Abbott Laboratories, priority 1991, dated 1993).

By IC50 is commonly meant the point on the concentration scale where inhibition reaches its midpoint.

This experiment concerns the target T1, 5-Lipoxygenase from HWBL-1 20,000 xg Supernatant (Rattus norvegicus, UniProt P12527).
T1 construct: 20,000 xg supernatant from 1.5 million homogenized HWBL-1 cells; endogenous in cells
T1 sequence (P12527 1-673): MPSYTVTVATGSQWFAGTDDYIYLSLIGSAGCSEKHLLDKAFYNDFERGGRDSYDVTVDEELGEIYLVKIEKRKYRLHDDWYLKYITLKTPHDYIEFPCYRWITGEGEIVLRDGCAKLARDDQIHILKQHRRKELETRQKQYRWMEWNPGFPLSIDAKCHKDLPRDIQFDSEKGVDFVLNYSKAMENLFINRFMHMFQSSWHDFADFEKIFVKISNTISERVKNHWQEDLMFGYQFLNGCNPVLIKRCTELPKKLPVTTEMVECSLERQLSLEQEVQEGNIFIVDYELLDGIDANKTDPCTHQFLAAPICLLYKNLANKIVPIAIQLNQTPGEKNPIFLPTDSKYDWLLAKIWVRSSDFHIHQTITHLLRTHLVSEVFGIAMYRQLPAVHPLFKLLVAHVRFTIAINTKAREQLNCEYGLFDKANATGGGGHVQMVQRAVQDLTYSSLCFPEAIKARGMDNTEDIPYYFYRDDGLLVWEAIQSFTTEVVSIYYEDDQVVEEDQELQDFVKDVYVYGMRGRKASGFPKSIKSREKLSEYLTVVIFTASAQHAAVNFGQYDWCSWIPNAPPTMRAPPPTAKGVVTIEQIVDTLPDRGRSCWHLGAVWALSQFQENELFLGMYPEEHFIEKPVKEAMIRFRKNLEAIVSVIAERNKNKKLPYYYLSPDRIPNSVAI
The experiment in a line: 5-lipoxygenase inhibition, 20,000 xg supernatant of homogenized HWBL-1 cells, radiolabeled arachidonic acid. Format: biochemical. The note with it: read-out: IC50 (in vitro inhibitory potency against 5-lipoxygenase). As to the method:
Assays to determine 5-lipoxygenase inhibitory activity of representative compounds of the present invention were performed in […] incubations containing the 20,000 xg supernatant from 1.5 million homogenized HWBL-1 cells and various concentrations of the test compound. Reactions were initiated by addition of radiolabeled arachidonic acid and terminated by acidification and ether extraction. Reaction products were separated from nonconverted substrate by thin layer chromatography and measured by liquid scintillation spectroscopy. All incubations are performed in triplicate. Inhibition of 5-lipoxygenase activity was calculated as the ratio of the amount of product formed in the presence and absence of inhibitor. IC50 values (concentration of compound producing 50% enzyme inhibition) were calculated by linear regression analysis of percentage inhibition versus log inhibitor concentration plots. (Dyer, R. D.; Haviv, F.; Hanel, A. M.; Bornemier, D. A.; Carter, G. W. Fed. Proc., Fed. Am. Soc. Exp. Biol. 1984, 43, 1462A).
In Vitro Inhibitory Potencies of Compounds of this Invention
Against 5-Lipoxygenase from HWBL-1 20,000 xg Supernatant
For the compound `CN(C(=O)CN(O)C(N)=O)c1cccc(Oc2ccccc2)c1` [5, step 2], the IC50 was found to be 6300 nM.

With `CNC(=O)N(O)CC(=O)N(C)c1cccc(Oc2ccccc2)c1` [5, step 3], the IC50 is 7300 nM.

Take `NC(=O)N(O)CC(=O)Nc1cccc(Oc2ccccc2)c1` [Example 1, N-Hydroxy-N-[(((3-phenoxyphenyl)amino)carbonyl)methyl]urea]: the IC50 was determined as 480 nM.

Turning to `NC(=O)N(O)CC(=O)Nc1cccc(OCc2ccccc2)c1` [Example 3, N-Hydroxy-N-[(((3-phenylmethoxyphenyl)amino)carbonyl)methyl]urea], the IC50 was 870 nM.

With `CN(C(=O)CN(O)C(N)=O)c1ccc(Oc2ccccc2)cc1` [Example 4], the IC50 came to 5800 nM.

With `CN(C(=O)CN(O)C(N)=O)c1cccc(OCc2ccccc2)c1` [Example 9, N-Hydroxy-N-[((N-methyl-(3-phenylmethoxyphenyl)amino)carbonyl)methyl]urea], the IC50 is 2800 nM.

For `NC(=O)N(O)CC(=O)Nc1ccc(Oc2ccccc2)cc1` [Example 10, N-Hydroxy-N-[(((4-phenoxyphenyl)amino)carbonyl)methyl]urea], the IC50 stood at 3500 nM.

With `CC(/C=C/c1ccc(Br)cc1)NC(=O)CN(O)C(N)=O` (stereo not drawn) [Example 11, N-Hydroxy-N-[(((trans-4-(4-bromophenyl)but-3-en-2-yl)amino)carbonyl)methyl]urea], the IC50 worked out at 6600 nM.

For the compound `CC(/C=C/c1cccc(Oc2ccccc2)c1)NC(=O)CN(O)C(N)=O` (stereo not drawn) [Example 12, N-Hydroxy-N-[(((trans-4-(3-phenoxyphenyl)but-3-en-2-yl)amino)carbonyl)methyl]urea], the IC50 is 730 nM.

On to `CC(/C=C\c1cccc(Oc2ccccc2)c1)NC(=O)CN(O)C(N)=O` (stereo not shown) [Example 13], for which the IC50 was found to be 830 nM.

As to `CN(CCN(O)C(N)=O)C(=O)Cc1ccc(Br)cc1` [Example 14, N-Hydroxy-N-[2-(((4-bromophenylacetyl)-N-methyl)amino)ethyl]urea], the IC50 was 1800 nM.

On to `CN(CCN(O)C(N)=O)C(=O)c1cccc(Oc2ccccc2)c1` [Example 15], for which the IC50 stood at 640 nM.

`COc1cccc(C(=O)NCCN(O)C(N)=O)c1` [Example 16]: the IC50 is 1900 nM.

In the case of `COc1ccc(C(=O)NCCN(O)C(N)=O)cc1` [Example 17], the IC50 is 5000 nM.

For the compound `CCCCOc1ccc(C(=O)NCCN(O)C(N)=O)cc1` [Example 18], the IC50 was determined as 250 nM.

`NC(=O)N(O)CCNC(=O)c1ccc(Cl)cc1` [Example 20, N-Hydroxy-N-[2-((4-chlorobenzoyl)amino)ethyl]urea]: the IC50 was 4500 nM.

Consider `NC(=O)N(O)CCCCNC(=O)c1cccc(Oc2ccccc2)c1` [Example 22, N-Hydroxy-N-[4-((3-phenoxybenzoyl)amino)butyl]urea], for which the IC50 stood at 330 nM.

On to `CNC(=O)N(O)CCNC(=O)c1cccc(Oc2ccccc2)c1` [Example 24, N-Hydroxy-N'-methyl-N-[2-((3-phenoxybenzoyl)amino)ethyl]urea], for which the IC50 turned out to be 290 nM.

On to `NC(=O)N(O)CCNC(=O)c1cccc(Oc2cccc(C(F)(F)F)c2)c1` [Example 25, N-Hydroxy-N-[2-((3-(3-trifluoromethylphenoxy)benzoyl)amino)ethyl]urea], for which the IC50 amounted to 430 nM.

With `CNC(=O)N(O)CCNC(=O)c1cccc(Oc2ccc(Cl)cc2)c1` [Example 27, N-Hydroxy-N'-methyl-N-[2-((3-(4-chlorophenoxy)benzoyl)amino)ethyl]urea], the IC50 turned out to be 760 nM.

`COc1ccc(Oc2cccc(C(=O)NCCN(O)C(N)=O)c2)cc1` [Example 28, N-Hydroxy-N-[2-((3-(4-methoxyphenoxy)benzoyl)amino)ethyl]urea]: the IC50 was found to be 230 nM.

Take `NC(=O)N(O)CCNC(=O)c1cccc(Oc2ccc(Cl)c(Cl)c2)c1` [Example 29, N-Hydroxy-N-[2-((3-(3,4-dichlorophenoxy)benzoyl)amino)ethyl]urea]: the IC50 came out at 300 nM.

As for `NC(=O)N(O)CCNC(=O)c1cccc(Oc2cc(Cl)cc(Cl)c2)c1` [Example 30, N-Hydroxy-N-[2-((3-(3.5-dichlorophenoxy)benzoyl)amino)ethyl]urea], the IC50 was determined as 340 nM.

For the compound `CC(C)(C)c1ccc(Oc2cccc(C(=O)NCCN(O)C(N)=O)c2)cc1` [Example 31, N-Hydroxy-N-[2-((3-(4-tert-butylphenoxy)benzoyl)amino)ethyl]urea], the IC50 worked out at 470 nM.

For `CC(CNC(=O)c1cccc(Oc2ccccc2)c1)N(O)C(N)=O` (stereo not shown) [Example 33, N-Hydroxy-N-[3-((3-phenoxybenzoyl)amino)prop-2-yl]urea], the IC50 was 610 nM.

With `NC(=O)N(O)CCNC(=O)c1ccc(-c2ccccc2)cc1` [Example 34, N-Hydroxy-N-[2-((4-phenylbenzoyl)amino)ethyl]urea], the IC50 was determined as 380 nM.

On to `CN(CCN(O)C(N)=O)Cc1cccc(Oc2ccc(Cl)c(Cl)c2)c1` [Example 39, N-Hydroxy-N-[2-(N-methyl((3-(3,4-dichlorophenoxy)phenyl)methyl)amino)ethyl]urea], for which the IC50 came to 310 nM.

Regarding `COc1ccc(CN(C)CCN(O)C(N)=O)cc1OCc1ccccc1` [Example 41, N-Hydroxy-N-[2-(((((4-methoxy-3-phenylmethoxy)phenyl)methyl)-N-methyl)amino)ethyl]urea], the IC50 turned out to be 1600 nM.

Regarding `CC(C)Oc1cccc(C(=O)NCCN(O)C(N)=O)c1` [Example 46, N-Hydroxy-N-[2-((3-(1-methylethoxy)benzoyl)amino)ethyl]urea], the IC50 was determined as 290 nM.

As to `C=C(C)COc1cccc(C(=O)NCCN(O)C(N)=O)c1` [Example 47, N-Hydroxy-N-[2-((3-(2-methyl-prop-2-enyloxy)benzoyl)amino)ethyl]urea], the IC50 was found to be 230 nM.

As to `NC(=O)N(O)CCNS(=O)(=O)c1ccc2ccccc2c1` [Example 48, N-Hydroxy-N-[2-((naphth-2-ylsulfonyl)amino)ethyl]urea], the IC50 is 1100 nM.

As for `NC(=O)N(O)CCNC(=O)c1cccn1Cc1ccc(Cl)cc1` [Example 49, N-Hydroxy-N-[2-(((1-(4-chlorophenylmethyl)pyrrol-2-yl)carbonyl)amino)ethyl]urea], the IC50 was found to be 290 nM.

Turning to `CC(CN(O)C(N)=O)N(C)C(=O)c1cccc(Oc2ccc(Cl)cc2)c1` (stereo not shown) [Example 50, N-Hydroxy-N-[2-(((3-(4-chlorophenoxy)benzoyl)-N-methyl)amino)propyl]urea], the IC50 was 5800 nM.

As for `CCCCCCOc1ccc(C(=O)NCCN(O)C(N)=O)cc1` [Example 57, N-Hydroxy-N-[2-((4-n-hexyloxybenzoyl)amino)ethyl]urea], the IC50 was found to be 290 nM.

As for `NC(=O)N(O)CCNC(=O)c1cscc1Sc1ccc(Cl)cc1` [Example 59, N-Hydroxy-N-[2-((4-(4-chlorothiophenoxy)thien-3-oyl)amino)ethyl]urea], the IC50 turned out to be 100 nM.

For `NC(=O)N(O)CCNC(=O)c1cccc(C(=O)c2ccccc2)c1` [Example 65, N-Hydroxy-N-[2-((3-benzoylbenzoyl)amino)ethyl]urea], the IC50 turned out to be 220 nM.

In the case of `CC(Oc1ccc(C(=O)NCCN(O)C(N)=O)cc1)c1ccccc1` (stereo not shown) [Example 66, N-Hydroxy-N-[2-((4-(1-phenylethyloxy)benzoyl)amino)ethyl]urea], the IC50 was 250 nM.

As to `CC(Oc1cccc(C(=O)NCCN(O)C(N)=O)c1)c1ccccc1` (stereo not shown) [Example 67, N-Hydroxy-N-[2-((3-(1-phenylethyloxy)benzoyl)amino)ethyl]urea], the IC50 turned out to be 350 nM.

As for `CC(C(=O)NCCN(O)C(N)=O)c1cccc(C(C)c2ccccc2)c1` (stereo not shown) [Example 69, N-Hydroxy-N-[2-(((3-(1-phenylethyl)phenyl)propion-2-yl)amino)ethyl]urea], the IC50 came out at 390 nM.

Take `NC(=O)N(O)CCNC(=O)COc1ccc(Oc2ccccc2)cc1` [Example 72, N-Hydroxy-N-[2-((4-phenoxyphenoxyacetyl)amino)ethyl] urea]: the half-maximal inhibitory concentration (IC50) was determined as 110 nM.

`NC(=O)N(O)CCNC(=O)c1ccc2ccccc2n1` [Example 75, N-Hydroxy-N-[2-((quinolin-2-oyl)amino)ethyl]urea]: the IC50 was found to be 100 nM.

Turning to `COc1ccc2cc(/C=C(\C)C(=O)NCCN(O)C(N)=O)ccc2c1` [Example 76, N-Hydroxy-N-[2-(((3-(6-methoxynaphth-2-yl)prop-2-en-2-yl)carbonyl)amino)ethyl]urea], the IC50 worked out at 1000 nM.

Consider `NC(=O)N(O)CCNC(=O)CCc1ccccc1` [Example 77, N-Hydroxy-N-[2-((3-phenylpropionyl)amino)ethyl]urea], for which the IC50 stood at 390 nM.
